We go through four sequences from publication PMC12552119, “Tailored structured peptide design with a key-cutting machine approach” (Nature Machine Intelligence, 2025).

Data set [1] deals with A. baumannii ATCC 19606. It counts as cell-based, Acinetobacter baumannii. The method, then:
(§1) Fig. 2 Antimicrobial activity and secondary structure of computationally designed peptides. a, Structure prediction of the synthesized peptides. b, Heatmap of the antimicrobial activities of the peptides against 11 clinically relevant pathogens, including four strains resistant to conventional antibiotics. Briefly, 10^6 bacterial cells and serially diluted peptides (1-64 μmol l^−1) were incubated at 37 °C. One day after treatment, the optical density at 600 nm was measured in a microplate reader to evaluate bacterial growth in the presence of the peptides. MIC values in the heatmap are the mode of the replicates in each condition. c–f, Ternary plots showing the percentage of secondary structure for each peptide (at 50 μmol l^−1) in four different solvents: water (c), 60% TFE in water (d), 10 mmol l^−1 SDS in water (e) and 50% methanol (MeOH) in water (f). Secondary structure fractions were calculated using the BeStSel server. […] An error of one column cannot be fully excluded. / Panel b: AT1, AT2, AT3 and all blank cells print no number and are left out.
(§2) In this study, we used the following pathogenic bacterial strains: A. baumannii ATCC 19606, E. coli AIC221 (E. coli MG1655 phnE_2::FRT (control strain for AIC222)) and E. coli AIC222 (E. coli MG1655 pmrA53 phnE_2::FRT (polymyxin resistant; colistin-resistant strain)), Klebsiella pneumoniae ATCC 13883, Pseudomonas aeruginosa PAO1, P. aeruginosa PA14 and Staphylococcus aureus ATCC 12600. All pathogens were grown in Luria–Bertani (LB) broth and on LB agar. Pseudomonas isolation (P. aeruginosa strains) agar plates were exclusively used in the case of Pseudomonas species. In all the experiments, bacteria were inoculated from one isolated colony and grown overnight (16 h) in liquid medium at 37 °C. On the following day, inocula were diluted 1:100 in fresh media and incubated at 37 °C to mid-logarithmic phase.
(§3) Broth microdilution assays[64] were conducted to establish the MIC for each peptide. Peptides were added to untreated polystyrene 96-well microtiter plates and serially diluted twofold in sterile water, ranging from 1 to 64 μmol l^−1. A bacterial inoculum at a concentration of 10^6 CFU ml^−1 in LB medium was then mixed in a 1:1 ratio with the peptide solution. […] Each assay was performed in three independent replicates.

Data set [2] has as its system E. coli AIC221. Format: cell-based, Escherichia coli. The settings on record: AIC221, 24 h. How it is done:
as §1, with “out. […]” for “out.”

In data set [3] the test system is K. pneumoniae ATCC 13883. It counts as cell-based, Klebsiella pneumoniae. Particulars: ATCC 13883, 24 h. How it is done: as §1, §2, §3
In data set [4] the test system is A. baumannii ATCC 19606. As to the kind of experiment: Cytoplasmic-membrane depolarization, DiSC3-5. Format: cell-based, Acinetobacter baumannii. The settings on record: DiSC3-5 fluorescence, peptides at their MIC, 60 min. The method, then: Fig. 3 Mechanism of action and cytotoxic activity of designed peptides. a, To assess whether the peptides act on bacterial membranes, all active peptides against A. baumannii American Type Culture Collection (ATCC) 19606 were subjected to outer-membrane permeabilization, and peptides active against A. baumannii ATCC 19606 and vancomycin-resistant E. faecalis ATCC 700802 were tested in cytoplasmic-membrane depolarization assays. b, The fluorescent probe NPN was used to assess membrane permeabilization induced by the tested peptides. c,d, The fluorescent probe DiSC3-5 was used to evaluate membrane depolarization caused by the designed peptides in A. baumannii ATCC 19606 (c) and vancomycin-resistant E. faecalis ATCC 700802 (d). […] All experiments were performed in three independent replicates. […]
The cytoplasmic-membrane depolarization assay was performed using the membrane-potential-sensitive dye DiSC3-5. […] Membrane depolarization was then followed by reading changes in the fluorescence (λex = 622 nm, λem = 670 nm) over time for 60 min. The relative fluorescence was calculated using the untreated control (buffer + bacteria + fluorescent dye) as baseline and the following equation was applied to reflect the percentage difference between the baselines and the sample: percentagedifference=100×(fluorescencesample−fluorescenceuntreatedcontrol)/fluorescenceuntreatedcontrol. […]

Data set [5] deals with E. coli ATCC 11775. Format: cell-based, Escherichia coli. Particulars: ATCC 11775, 24 h. How it is done: as §1
Broth microdilution assays[64] were conducted to establish the MIC for each peptide. Peptides were added to untreated polystyrene 96-well microtiter plates and serially diluted twofold in sterile water, ranging from 1 to 64 μmol l^−1. […]

The test system of data set [6] is P. aeruginosa PA14. It counts as cell-based, Pseudomonas aeruginosa. Particulars: PA14, 24 h. How it is done: as §1, §2
(§4) Broth microdilution assays[64] were conducted to establish the MIC for each peptide. […]

Data set [7] concerns P. aeruginosa PAO1. It counts as cell-based, Pseudomonas aeruginosa. Particulars: PAO1, 24 h. How it is done:
as §1, §2, §4

Data set [8] concerns E. faecium ATCC 700221 - VRE. Format: cell-based. Particulars: ATCC 700221, 24 h. How it is done: as §1, §3
The subject of data set [9] is A. baumannii ATCC 19606. As to the kind of experiment: Skin abscess infection mouse model, bacterial load. It counts as in vivo, CD-1 mice. Particulars: single dose at MIC on the wound 1 h after infection, n = 6. The method, then: Fig. 4 Anti-infective activity of designed peptides in a skin scarification animal model. a, Schematic representation of the skin abscess mouse model used to assess the anti-infective activity of the designed peptides (n = 6) against A. baumannii ATCC 19606. […] Statistical significance in panel b was determined using one-way ANOVA followed by Dunnett’s test; P values are shown in the graphs. In the violin, the centre line represents the […], the box limits the first and third quartiles and the whiskers (minima and maxima) represent 1.5 × the interquartile range. Panel a created with BioRender.com. Source data
The backs of six-week-old female CD-1 mice under anaesthesia were shaved and injured with a superficial linear skin abrasion made with a needle. An aliquot of A. baumannii ATCC 19606 (2 × 10^6 CFU ml^−1; 20 μl) previously grown in LB medium until 0.5 optical density ml^−1 (optical value at 600 nm) and then washed twice with sterile PBS (pH 7.4, 9,391 g for 3 min) was added to the scratched area. Peptides diluted in sterile water at MIC value were administered to the wound area 1 h after the infection. Two and four days after infection animals were euthanized, and the scarified skin was excised, homogenized using a bead beater (25 Hz for 20 min), tenfold serially diluted, and plated on McConkey agar plates for CFU quantification. […]

Data set [10] is described as follows: Mouse weight in the skin abscess model. Further details: species or system CD-1 mice. Particulars: in vivo. How it is done:
The backs of six-week-old female CD-1 mice under anaesthesia were shaved and injured with a superficial linear skin abrasion made with a needle. An aliquot of A. baumannii ATCC 19606 (2 × 10^6 CFU ml^−1; 20 μl) previously grown in LB medium until 0.5 optical density ml^−1 (optical value at 600 nm) and then washed twice with sterile PBS (pH 7.4, 9,391 g for 3 min) was added to the scratched area. Peptides diluted in sterile water at MIC value were administered to the wound area 1 h after the infection. Two and four days after infection animals were euthanized, and the scarified skin was excised, homogenized using a bead beater (25 Hz for 20 min), tenfold serially diluted, and plated on McConkey agar plates for CFU quantification. The experiments were performed using six mice per group. Mice were housed in groups of three and maintained under a 12-h light/dark cycle at 22 °C with humidity controlled at 50%. The skin abscess infection mouse model was revised and approved by University Laboratory Animal Resources from the University of Pennsylvania (protocol 806763).
(§5) Figure S6. Cytotoxicity and anti-infective activity of designed peptides. (a) Cytotoxic effects of increasing concentrations ([…]) of each peptide on human embryonic kidney (HEK293T) cells after 24 h of treatment. Mouse weight was monitored throughout the duration of the (b) skin abscess model (4 days total) and the (e) deep thigh infection model (8 days total) to assess potential toxic effects of both the bacterial load and the designed peptides. (c) Schematic of the neutropenic thigh infection mouse model, where the designed peptides were administered intraperitoneally. Anti-infective activity against A. baumannii ATCC 19606 was evaluated 4 days after intraperitoneal peptide administration (n = 6). (d) Four days after intraperitoneal injection, NE2 at its MIC (32 µmol L-1) inhibited by […]
(§6) Statistical significance in panel d was determined using one-way ANOVA followed by Dunnett’s test; P values are shown in the graphs. […]

Data set [11] relates to A. baumannii ATCC 19606. The experiment in a line: Deep thigh infection mouse model, bacterial load. Format: in vivo, CD-1 mice. Particulars: n = 6; for reduction of A. baumannii bacterial load, deep thigh infection model: neutropenic mice, peptides intraperitoneally. How it is done:
(§7) Six-week-old female CD-1 mice were rendered neutropenic by two doses of cyclophosphamide (150 mg kg^−1 and 100 mg kg^−1) applied intraperitoneally 3 and 1 d before the infection. On day 4 of the experiment, the mice were infected in their right thighs with a 100-μl intramuscular injection of the A. baumannii ATCC 19606 in PBS at concentration of 5 × 10^6 CFU ml^−1. The bacterial cells were grown in LB broth, washed twice with PBS solution and diluted at the desired concentration. The peptides were administrated intraperitoneally 2 h after the infection. Two days after infection mice were euthanized, and the tissue from the right thigh was excised, homogenized using a bead beater (25 Hz for 20 min), tenfold serially diluted, and plated on McConkey agar plates for bacterial colony counting. The experiments were performed using six mice per group. Mice were housed in groups of three and maintained under a 12-h light/dark cycle at 22 °C with humidity controlled at 50%. The deep thigh infection mouse model was revised and approved by University Laboratory Animal Resources from the University of Pennsylvania (protocol 807055).
as §5, §6

The format of data set [12] is in vivo, CD-1 mice. Particulars: deep thigh infection model. How it is done: as §7, with “Mice were housed in groups of three and maintained under a 12-h light/dark cycle at 22 °C with humidity controlled at 50%. The deep thigh infection mouse model was revised and approved by University Laboratory Animal Resources from the University of Pennsylvania (protocol 807055).” left out
Figure S6. […] Mouse weight was monitored throughout the duration of the (b) skin abscess model (4 days total) and the (e) deep thigh infection model (8 days total) to assess potential toxic effects of both the bacterial load and the designed peptides. […] Anti-infective activity against A. baumannii ATCC 19606 was evaluated 4 days after intraperitoneal peptide administration (n = 6). […]
as §6

In data set [13] the test system is HEK293T cells. The settings on record: cited from earlier work.
Procedure: Cytotoxicity was evaluated using human embryonic kidney (HEK293T) cells (Fig. 3e)[45].
[14] abbreviates: broth microdilution, LB, 10^6 CFU ml^-1, peptides 1-64 μmol l^-1, 24 h, 37 °C, OD600, mode of three replicates.

Entries after “also recorded” stand apart in the source; their conditions may differ. Like-named read-outs stand apart in the source and are kept apart here. Where no end group is shown, it is not given here.

What is called MIC is the smallest concentration in the dilution series that meets the test's criterion for growth inhibition. The low end stands for greater potency, the high end for weaker potency. As for KFKLIVHYRICK [NG3], the MIC in data set [1] (ATCC 19606, 24 h) was 32 µM; in data set [2], 8 µM; in data set [3] it was 16 µM. The cytoplasmic-membrane depolarization result in data set [4] is “particularly effective”.
For HWKLIVRWKVQH [NG1], the MIC was found to be 4 µM in data set [1] (ATCC 19606, 24 h); 4 µM in data set [1] (setting [14]); 16 µM in data set [5]; 4 µM in [3]; 16 µM in [6]; 32 µM in data set [7]. In [8], the MIC was determined as 4 µM. Besides, the “reduction of A. baumannii bacterial load, skin abscess model” value in [9] is given as “up to two orders of magnitude; also recorded: inhibited the proliferation of the infection for up to 4 d after treatment”. Also, the “weight loss or skin damage” value in data set [10] and in [12] was “No weight loss or skin damage” in each case. Also, the “reduction of A. baumannii bacterial load, deep thigh infection model” value in data set [11] is given as “up to two orders of magnitude”.
Regarding KWRLLIRWRIQK [IDR-2009], in [13], the “cytotoxicity of the parental peptide” value was “did show cytotoxicity”.
As to KWKARIQFKAAH [NE2], the MIC in data set [1] (ATCC 19606, 24 h) came to 32 µM; in [1] (setting [14]) it was 32 µM; in data set [5], 16 µM; in data set [3], 16 µM; in data set [7], 64 µM; in data set [8], 32 µM. Also, in [9], the “reduction of A. baumannii bacterial load, skin abscess model” value was “up to two orders of magnitude; also recorded: inhibited the proliferation of the infection for up to 4 d after treatment”. Also, the “weight loss or skin damage” value in data set [10] and in data set [12] was “No weight loss or skin damage” in each case. Further, the “inhibition of the A. baumannii ATCC19606 infection against the untreated control” value in [11] (four days after intraperitoneal injection, at its MIC) was “one order of magnitude”. In data set [11], the “reduction of A. baumannii bacterial load, deep thigh infection model” value was “up to two orders of magnitude”.
